Results on five compounds are retold here after US6117857A, “Pharmaceutical composition” (priority 1995, dated 2000).

By IC50 is commonly meant the point on the concentration scale where inhibition reaches its midpoint.

Structures can show the parent of a compound that is named as a salt.

Data set [1] concerns recurrent herpes simplex virus infections. As to conditions: cited from earlier work; for Healing time: topical treatment, recurrent cutaneous virus diseases.
For data set [2] the following is noted: cited from earlier work.
Data set [3] deals with herpes simplex virus type 1 (strain R39). The data set can be described thus: Test 4. Antiviral effect of liposomal foscarnet on HSV-1 (HL cells, ELISA). Format: cell-based, HSV-1; human lung fibroblast (HL) cells. The settings on record: Human alphaherpesvirus 1, 24 h, read-out: Antiviral effect on HSV-1, IC50. The protocol: Liposomes were constructed according to Formulations 7 and 8. The liposomes were not purified from the surrounding foscarnet-containing medium and antiviral effects by the liposomes might therefore be underestimated by cell culture assays. Antiviral effects of liposomes against herpes simplex virus type 1 were tested using previously published methods (Abele, G., et al., Antiviral Chemistry & Chemotherapy (1991) 2(3), 163-169) with some modifications. Confluent human lung fibroblast (HL) cells were infected with HSV-1 (strain R39) for one hour at 37° C. The virus inoculum was removed, and various dilutions of foscarnet-loaded liposomes, empty liposomes or foscarnet in medium were added. After 24 h the cells were lysed by addition of Triton X100, subjected to a freeze-thaw cycle, and the cell lysates tested for viral replication in an HSV-1-specific ELISA. The results obtained at a virus dilution of 1:500 and an incubation time of 24 h are stated in the following Table 4.
A general note: In an ELISA, binding on a coated surface is turned into a signal by an enzyme label.

Data set [4] is described as follows: Test 5. Cytotoxicity of liposomal foscarnet (PBMC growth). Format: cell-based. The settings on record: human PBMC, cell counter, read-out: Cytotoxicity, CIC50 (cell growth inhibitory concentration). The protocol:
Liposomes were prepared according to Formulation 7 above and the cytotoxic effects thereof tested using human peripheral blood mononuclear cells (PBMC) as previously described (method according to Palmer, S., et al., Aids Research and Human Retroviruses, Vol.11, No. 10, 1995 with some modifications). The PBMCs were incubated with the drugs in medium for 72 h and cell growth was measured in an automatic cell counter. Above 10 000 μM the liposomes themselves interfered with the cell counting.

Data set [5] can be described thus: Systemic uptake of topically applied foscarnet (previous research). Format: in vivo. As to conditions: about 100 mg of 5% foscarnet cream (about 5 mg foscarnet).
The conditions of data set [6]: topical, 3% formulation; cited from earlier work.
The test system of data set [7] is reverse transcriptase of HIV. The settings on record: cited from earlier work.
Another data set relates to HIV. The settings on record: in vitro; cited from earlier work.
A further data set has as its system human herpesvirus. As to conditions: in vitro; cited from earlier work.
The conditions of data set [8]: phospholipid liposomes; WO 89/05152; cited from earlier work.
The subject of a further data set is Kaposi's sarcoma. As to conditions: intravenous treatment; cited from earlier work.

Regarding `Nc1nc2c(ncn2COCCO)c(=O)[nH]1` [acyclovir, 9-[(2-hydroxyethoxy)methyl]guanine], the Healing time entry in data set [1] is given as “only reduced by approximately one day”. Also, in data set [2] (human, in vivo), the “Adverse effects of therapy” value is given as “very few adverse effects”.
Turning to `CC(=O)OCC(CCn1cnc2cnc(N)nc21)COC(C)=O` [famciclovir], in data set [1], the Healing time entry is on record as “only reduced by approximately one day”.
Turning to `O=C(O)P(=O)(O)O` [foscarnet, trisodium salt of phosphonoformic acid, hexahydrate], the IC50 in data set [3] is 0.151 mM. The CC50 at 72 h in data set [4] is 2.46 mM. Moreover, in [5], the “Amount entering the systemic circulation per application” value is listed as not above 0.25 mg per application. Further, the “Healing time of lesions” value in data set [1] (topical, conventional cream, recurrent HSV, immunocompetent patients) was “shortened by approximately one day”. The “Irritation of mucous membranes or the skin” value in [6] was “known to cause irritation of mucous membranes or the skin”. In [7], the “Inhibition of reverse transcriptase of HIV (in words)” value was “inhibits the reverse transcriptase of HIV”. In addition, the “Antiviral activity against replication of HIV (in words)” value in the data set on HIV is on record as “shows antiviral activity against the replication of HIV in vitro”. The “Activity against human herpesvirus (in words)” value in the data set on human herpesvirus is recorded as “proven activity against all human herpesvirus in vitro”. Moreover, the “Intracellular antiviral activity in liposome-encapsulated form” value in [8] was “several-fold higher intracellular antiviral activity”. In addition, the “Response of Kaposi's sarcoma patients” value in the data set with Kaposi's sarcoma is on record as “some patients have responded”. Further, in data set [2] (intravenous, CMV retinitis and acyclovir-resistant HSV in AIDS patients), the “Side-effect of intravenous treatment” value is “renal function impairment”.
Consider `Nc1nc2c(ncn2CCC(CO)CO)c(=O)[nH]1` [penciclovir, 9-(4-hydroxy-3-hydroxymethylbut-1-yl)-guanine], for which, in data set [1], the Healing time entry is “only reduced by approximately one day”.
With `CC(C)[C@H](N)C(=O)OCCOCn1cnc2c(=O)[nH]c(N)nc21` [valaciclovir, L-valyl acyclovir], the Healing time result in data set [1] is on record as “only reduced by approximately one day”.
